# Reference: EP0695187B1, “INHIBITION, CONTROL AND REGRESSION OF ANGIOGENESIS WITH HYALURONIC ACID OR HYALURONIC ACID AND NSAID” (JAGOTEC AG, priority 1993, dated 1994)
# Values joined by “and” are separate entries in the source; they are usually repeats but may differ in a detail not shown here. Equal values may be shown once.
# What was measured:
# Type in all cases: in vivo, mice
# [1] = test system: vasculature within the murine chronic granulomatous air pouch; experiment: murine chronic granulomatous air pouch, carmine vascular cast; dosing daily from induction for 6 days; details: Topical, n = 8 (Table Three summary)
# [2] = test system: vasculature within the murine chronic granulomatous air pouch; experiment: as above; details: for effect on the tissue vascularity: daily
# Experimental: The Applicants chose a simple model of murine angiogenesis induced with a chronic granulomatous reaction to Freund's complete adjuvant in croton oil. The Applicants assessed this process using a modification of this method by the formation of an intravascular cast incorporating carmine red. Chronic granulomatous air pouches were induced by the sc injection of 3 ml air into anaesthetized mice (25-30 g, Tuck Original) and 0.5 ml Freund's complete adjuvant with 0.1% croton oil 24 hours later. The mice were dosed for 6 days and the vascular content assessed by the formation of a vascular cast. This was formed by the intravenous injection of 1 ml 25% carmine red in 10% gelatin at 40°C into warmed mice. This overcame any pharmacological or temperature-related alterations in peripheral vasomotor tone which may have invalidated the results. The carcasses were chilled and the granulomatous air pouch linings dissected. These were dried at 56°C, weighed, and papain digested. The dye was then be dissolved by the addition of 1 ml 0.05 M NaOH, and the samples were then centrifuged at 2500 g for 20 minutes. After these were filtered, the absorbances were read at 490 nm using a multiwell plate reader (Biotek). The results were then expressed as either µg dye/mg dry weight of tissue. […] On the seventh day after induction the vascularity of the tissue was assessed. […] The formation of a subcutaneous air pouch in the dorsum of mice allows the formation of a lining which responds to produce a chronic inflammatory lesion in response to various antigens, irritants and foreign bodies. It can also be used for the introduction of drugs and various other treatments into the site of inflammation and the collection of inflammatory exudate. […] For this experiment female mice (TO. 25-30g, 10 per group) were lightly anesthetized with hypnorm/hypnoval. Air pouches were formed by the subcutaneous injection of 3 ml of filter-sterilized air, into the dorsum of each mouse. After 24 hours, chronic inflammation was induced in the air pouch lining by the injection of 0.5 ml Freund's complete adjuvant (FCA) supplemented with 0.1% croton oil. Animals were dosed daily from the time o: injection of FCA/croton oil, for 6 Days. At which point the analysis was performed. […] Each mouse was then placed into a water jacketed incubation chamber at 37°C and injected i.v. with 1 ml of 15% carmine dye in 10% gelatin (in Hanks balanced salt solution) with syringe and solution prewarmed to 40°C. Cadavers were then chilled at 4°C for 4 hours. The granulomatous tissue was dissected free and dried in an oven at 56°C for 48 hours. The dried granuloma was weighed and then digested in 9 ml of papain solution (12-Units/ml in 0.05 M phosphate buffer, pH 7.0, supplemented with 0.33g/l N-acetyl cysteine), at 56°C for 48 hours. The digests were then made up to 10 ml with 5.0M NaOH and vortexed, to solubilise the dye and centrifuged. The digests were filtered through 0.2µm cellulose nitrate membranes and […] samples aliquoted into 96 well plates and analyzed for dye content by spectrophotometric analysis at […] using a microplate reader. Vascular volume was calculated as carmine content per mg dry mass of tissue.
# [3] = test system: vasculature within the murine chronic granulomatous air pouch; experiment: further protocol: air pouch granuloma grown 7 days untreated, then topical daily treatment (regression); details: for VI: mean vascularity index; for Carmine / Dry wt. gran.: mean
# Experimental: In another protocol, the use of the air pouch on the mice was once again employed. Only this time, after formation of the pouches and injection of .5 ml Freund's complete adjuvant (FCA) supplemented with 0.1% croton oil, the granuloma in the mice were permitted to grow for 7 days (they were left unhealed for 1 week). […] The granulomatous tissue was dissected and treated as previously described. The weight of the granuloma (including the carmine red dye) and weight of the carmine red dye (which displaced the blood) were determined for each mouse sacrificed at each stage (after 7, 14 and 21 days). The vascularity index (VI) was calculated and the mean vascularity index was calculated for each group as follows: Vascularity Index (VI) =(weight of carmine red dye in GRANULOMA)/(Weight of GRANULOMA (including carmine red dye)) [formula]
# [4] = i-pouch, n = 10 (Table Three summary)
# [5] = intra-pouch injection, daily 6 days, group mean, N = 10
# [6] = 2 week (one week of topical application)
# [7] = 3 week (two weeks of topical application)
smiles,measurement,setting,value
"O=C(O)Cc1ccccc1Nc1c(Cl)cccc1Cl [diclofenac (diclo), Diclofenac]",Carmine dye (ug) Mean,[1],187.3 µg
same,Granuloma dry wt.(mg) Mean,[1],166.3 mg
same,ug.dye/mg.gramuloma Mean,[1],1.216 ug.dye/mg.gramuloma
same,Carmine dye (ug) Mean,[2]; [4],92.6 µg
same,ug.dye/mg.gramuloma Mean,[2]; [4],0.7363 ug.dye/mg.gramuloma
same,effect on the tissue vascularity,"[2]; intra-lesional injection, assessed on seventh day (Figure 1(b))",no significant effect
same,Absorbness / Absorbous,"[2]; intra-pouch injection, daily 6 days, absorbance at 490 nm of digest, individual animals, listed as Saline + diclo",0.773 and 0.242 and 0.730 and 0.400 and 0.409 and 0.262 and 0.402 and 0.468
same,ug dye mg,"[2]; intra-pouch injection, daily 6 days, carmine per mg dry tissue, individual animals, listed as Saline + diclo",1.194 ug dye mg and 0.320 ug dye mg and 1.577 ug dye mg and 1.050 ug dye mg and 0.674 ug dye mg and 0.442 ug dye mg and 0.526 ug dye mg and 0.471 ug dye mg and 0.586 ug dye mg and 0.520 ug dye mg
same,Dry wt,"[2]; intra-pouch injection, daily 6 days, dried granuloma, individual animals, listed as Saline + diclo",158 mg and 99 mg (2×) and 124 mg and 162 mg and 170 mg and 122 mg
same,ug carmine,[2]; [5],92.75 µg
same,ug dye mg,[2]; [5],0.7363 ug dye mg
same,ug carmine,"[2]; intra-pouch injection, daily 6 days, individual animals, listed as Saline + diclo",166 µg and 50.5 µg and 156 µg and 104 µg and 86.7 µg and 54.8 µg and 85.2 µg and 63.7 µg and 99.5 µg and 61.3 µg
same,effect on the tissue vascularity,"[2]; topical, assessed on seventh day (Figure 1(a))",no significant effect
same,VI,"[3]; 2 week (one week of topical application), listed as Diclo Alone",1.3 µg/mg
same,VI,"[3]; 2 week (one week of topical application), listed as aq. cream/Diclo",1.300 µg/mg
same,Carmine,[3]; [6],108.63 µg
same,Dry wt. gran.,[3]; [6],84.41 mg
same,Carmine,[3]; [7],150.07 µg
same,Dry wt. gran.,[3]; [7],112.19 mg
